# Experimental data reported in patent US10591491B1, “Blood biomarker for early blood brain barrier disruption in ischemic stroke” (STC.UNM, priority 2011, dated 2020).
# “Also recorded” adds a separate entry of the source.
# Key:
# bEND3 cells [1] = test: OGD-induced claudin-5 redistribution between subcellular fractions, Western blot; type: cell-based, Mouse; conditions: SB-3CT, 2 h OGD; Western blot of subcellular fractions
# Protocol: OGD treatment. To mimic acute ischemia-like conditions in vitro, bEND3 cells were exposed to OGD for 2 h as we described previously (Furuichi et al., 2005). In brief, confluent bEND3 cells were subjected to an ischemic injury by transferring cultures to glucose free medium (DMEM without glucose) pre-equilibrated with 95% N2 and 5% CO2. Cells were then incubated in a humidified airtight chamber (Billups-Rothberg Inc.) equipped with an air lock and flushed with 95% N2 and 5% CO2 for 15 min. The chamber was then sealed and kept at 37° C. for another 105 min. The oxygen concentration was below 0.2% as monitored by an oxygen analyzer (Sable Systems). Control cultures were incubated with normal DMEM medium without FBS for 2 h at 37° C. in 95% air and 5% CO2. Immediately after OGD treatment, the conditioned media (CM) and cells were collected separately for further analyses.
# Preparation of total cell lysate, subcellular fractions. To reveal a redistribution of MMP-2/9, Caveolin-1 (Cav-1) and TJ proteins in OGD-treated bEnd3 cells, three subcellular fractions including membranous, cytosolic, and cytoskeletal fractions were extracted using ProteoExtract Subcellular Proteome Extraction Kit (Calbiochem) according to manufacturer's instruction. […]
# bEND3 cells [2] = test: Immunostaining of occludin in OGD-treated bEND3 cells (confocal); type: cell-based, Mouse
# Protocol: (§1) Cell culture. Mouse brain microvascular endothelial cells bEND3 (American Type Culture Collection) were grown as a monolayer in DMEM with 15% fetal bovine serum (FBS), 100 U/ml penicillin and 100 μg/ml streptomycin at 37° C. in a humidified incubators with 5% CO2 and 95% room air. The cells were subcultured into 60 mm dishes coated with type I collagen (Nakamuta et al., 2005) and allowed to grow to confluence before exposure to OGD for 2 h. After OGD treatment, cell toxicity was measured by lactate dehydrogenase (LDH) assay using a CytoTox 96 Non-Radioactive Cytotoxicity Assay Kit (Promega). Besides endothelial cells, we also tested the effect of OGD on MMP-2/9 secretion in two mouse neural cell lines, C8-D1A (astrocyte) and […]. Both cell lines were purchased from American Type Culture Collection. C8-D1A cells and SH-SY5Y cells were cultured in DMEM or DMEM/F12 (1:1) (Sigma) containing 10% FBS, 100 U/ml penicillin and 100 μg/ml streptomycin, respectively. These cells were allowed to grow to 80-90% confluence before exposure to 2-h OGD treatment.
# (§2) OGD treatment. To mimic acute ischemia-like conditions in vitro, bEND3 cells were exposed to OGD for 2 h as we described previously (Furuichi et al., 2005). […] The oxygen concentration was below 0.2% as monitored by an oxygen analyzer (Sable Systems). […]
# bEND3 cells [3] = test: OGD-induced occludin degradation in bEND3 cells, Western blot of total cellular extracts; type: cell-based, Mouse
# Protocol: as §1, §2
# occludin = target: T1, occludin (UniProt Q61146)
# T1 sequence: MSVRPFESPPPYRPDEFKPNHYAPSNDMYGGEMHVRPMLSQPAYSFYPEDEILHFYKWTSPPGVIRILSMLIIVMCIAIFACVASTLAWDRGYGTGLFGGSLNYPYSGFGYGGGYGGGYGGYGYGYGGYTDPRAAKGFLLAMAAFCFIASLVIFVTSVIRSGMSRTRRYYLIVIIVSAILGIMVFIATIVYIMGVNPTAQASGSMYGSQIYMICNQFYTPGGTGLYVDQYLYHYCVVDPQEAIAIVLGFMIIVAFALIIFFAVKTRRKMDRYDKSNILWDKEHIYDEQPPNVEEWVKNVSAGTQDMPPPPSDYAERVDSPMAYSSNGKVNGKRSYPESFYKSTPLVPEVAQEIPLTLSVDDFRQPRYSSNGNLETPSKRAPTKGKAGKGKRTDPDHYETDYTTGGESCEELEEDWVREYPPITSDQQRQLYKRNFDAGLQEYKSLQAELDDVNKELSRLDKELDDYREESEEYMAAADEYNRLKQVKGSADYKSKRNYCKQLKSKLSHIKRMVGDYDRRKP
# [4] = tPA thrombolysis, cited from earlier work
compound,measurement,setting,value
O=S(=O)(CC1CS1)c1ccc(Oc2ccccc2)cc1 (centres unmarked) [SB-3CT],OGD-induced claudin-5 redistribution between subcellular fractions,bEND3 cells [1],had no effect on its redistribution between subcellular fractions; also recorded: had no effect on OGD-induced claudin-5 redistribution
same,occludin immunostaining reduction in OGD-treated cells,"bEND3 cells [2]; SB-3CT pretreatment, 2 h OGD, confocal microscopy",completely inhibited occludin reduction in OGD-treated cells
same,occludin immunostaining in control cells,bEND3 cells [2]; SB-3CT-treated control cells vs vehicle-treated control cells,slight stronger immunostaining (brighter fluorescence) for occludin
same,OGD-induced occludin degradation (occludin protein in total cellular extracts),"bEND3 cells [3]; SB-3CT 10 μM, 2 h before and during 2 h OGD, Western blot, vs vehicle (DMSO) plus OGD",completely abolished OGD-induced occludin reduction; also recorded: completely inhibited OGD-induced occludin degradation
same,occludin level in control (non-OGD) bEND3 cells,bEND3 cells [3]; SB-3CT-treated control cells compared to vehicle-treated cells (DMSO),slight increase (not statistically significant) in occludin level
active MMP-9,occludin degradation in bEND3 extracts,occludin,active MMP-9-induced occludin degradation
"tPA: tissue plasminogen activator, the only FDA-approved therapy for acute ischemic stroke",mortality rate in stroke patients who have such bleeding,[4]; patients with symptomatic ICH,50%
same,increase in the incidence of symptomatic ICH,[4]; stroke patients,10 fold
